Source: patent publication US20060093578A1, “Method and composition for treating multiple sclerosis” (Kyorin Pharmaceutical Co., Ltd., priority 2004, published 2006)

Legend:
[1] = system: IL-12 p70 production by microglia; assay: IL-12 p70 production by LPS + IFNγ-stimulated microglia (ELISA); type: cell-based, C57BL/6J mice; conditions: for IL-12 p70: mean ± SD (n = 9); for IL-12 production by microglia: LPS and IFNγ stimulation, graded doses (FIG. 1, FIG. 9A)
Protocol: Samples used for the experiments were prepared as described below. […] The cultures were maintained with Dulbecco's modified Eagle's minimum essential medium supplemented with 10% fetal calf serum, 5 μg/ml bovine insulin, and 0.2% glucose.
The supernatant was then collected and stored at −70° C. until assessed. From the remaining cells, total RNA was extracted, following the guanidinium thiocyanate method (RNeasy Mini Kit;QIAGEN). The cDNA encoding mouse TNFα, IL-1β, IL-6, iNOS (inducible nitric oxide synthetase), and IL-12, was generated by reverse transcription-polymerase chain reaction (RT-PCR) using Superscript II (INVITROGEN), and Ampli Taq DNA polymerase (APPLIED BIOSYSTEMS) with the specific primers shown in Table 1.
Cytokine production was measured with an ELISA kit specific for IL1, IL-6, TNFα, and IL-12 p70 (TECHNE Corp. MN). NO production was determined by Griess reaction. Briefly, a 50 μl aliquot of supernatants were mixed with an equal volume of Griess reagent (0.1% N-ethylenediarnine dihydrochloride, 1% sulfanilamide, and 2.5% phosphoric acid) and incubated for 15 minutes at room temperature, and the absorbance was read at 540 nm on a microtiter plate reader. Nitrite concentrations were calculated from a standard curve of NaNO2 (Yoshikawa M, Suzumura A, Tamaru T, et al. “Effects of phosphodiesterase inhibitors on microglia.” Multiple Scler 1999;5: 126-133, the contents of which are hereby incorporated by reference in their entirety).

[2] = system: peripheral blood mononuclear cells; conditions: with IFNβ, synergistically; PBMC from patients with active MS; clinical trial; cited from earlier work
[3] = microglia + LPS (1 μg/mL) + IFNγ (1 ng/mL) + IFNβ 10^2 U/mL, agent 1 μM
[4] = microglia + LPS (1 μg/mL) + IFNγ (1 ng/mL) + IFNβ 10^2 U/mL, agent 10 μM
[5] = microglia + LPS (1 μg/mL) + IFNγ (1 ng/mL) + IFNβ 10^2 U/mL, agent 100 μM, detection limit 7 pg/mL
[6] = microglia + LPS (1 μg/mL) + IFNγ (1 ng/mL), agent 1 μM, stimulated control 118 ± 13
[7] = microglia + LPS (1 μg/mL) + IFNγ (1 ng/mL), agent 10 μM, stimulated control 118 ± 13
[8] = microglia + LPS (1 μg/mL) + IFNγ (1 ng/mL), agent 100 μM, detection limit 7 pg/mL

| Structure (SMILES) | IL-12 p70 [1, 3] [pg/mL] | IL-12 p70 [1, 4] [pg/mL] | IL-12 p70 [1, 5] | IL-12 p70 [1, 6] [pg/mL] | IL-12 p70 [1, 7] [pg/mL] | IL-12 p70 [1, 8] | IL-12 production by microglia [1] | anti-inflammatory cytokine IL-10 [2] | production of inflammatory cytokines [2] |
| --- | --- | --- | --- | --- | --- | --- | --- | --- | --- |
| CC(C)C(=O)c1c(C(C)C)nn2ccccc12 [Ibudilast, ibudilast] | 48 ± 11 | 43 ± 6 | <7^a** pg/mL | 53 ± 4 | 48 ± 5 | <7^a* pg/mL | – | – | – |
| CCCC(=O)Nc1ncnc2c1ncn2[C@@H]1O[C@@H]2COP(=O)(O)O[C@H]2[C@H]1OC(=O)CCC [dbcAMP, dibutyryl cAMP] | – | – | – | 122 ± 23 | 59 ± 18 | 23 ± 8 pg/mL | dose-dependently suppressed | – | – |
| CC(=O)CCCCn1c(=O)c2c(ncn2C)n(C)c1=O [pentoxifylline] | – | – | – | – | – | – | – | up-regulate | reduce |
| C=C[C@@]1(C)CC(=O)[C@]2(O)[C@@]3(C)[C@@H](O)CCC(C)(C)[C@@H]3[C@H](O)[C@H](OC(C)=O)[C@@]2(C)O1 [forskoline, forskolin] | 47 ± 10 | 34 ± 6 | <7^a** pg/mL | – | – | – | – | – | – |
| Cc1[nH]c(=O)c(C#N)cc1-c1ccc2nccn2c1 [Orprinone, orprinone] | 67 ± 14 | 44 ± 7 | 40 ± 9 pg/mL | 107 ± 20 | 88 ± 14 | 32 ± 11 pg/mL | dose-dependently suppressed | – | – |
